Assays:
[1] = target: T1, Cholecystokinin receptor type A (Homo sapiens, UniProt P32238); format: cell membranes, Membrane; conditions: 1321-n1
T1 sequence (P32238 whole entry): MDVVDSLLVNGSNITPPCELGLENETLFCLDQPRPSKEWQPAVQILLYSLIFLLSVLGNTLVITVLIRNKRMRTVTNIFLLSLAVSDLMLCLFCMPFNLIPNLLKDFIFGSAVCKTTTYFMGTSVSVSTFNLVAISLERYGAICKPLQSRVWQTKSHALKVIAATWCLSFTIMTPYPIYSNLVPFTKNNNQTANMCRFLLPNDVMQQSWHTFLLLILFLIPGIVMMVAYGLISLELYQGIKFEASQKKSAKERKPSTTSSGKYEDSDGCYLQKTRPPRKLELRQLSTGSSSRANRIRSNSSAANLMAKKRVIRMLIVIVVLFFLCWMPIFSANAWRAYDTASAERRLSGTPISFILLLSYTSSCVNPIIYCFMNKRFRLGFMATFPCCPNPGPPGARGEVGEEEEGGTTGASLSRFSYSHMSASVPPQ

[2] = target: C-C chemokine receptor type 2 (Homo sapiens, UniProt P41597); format: cell membranes, Membrane; conditions: cho-k1
Sequence of C-C chemokine receptor type 2 (P41597 whole entry): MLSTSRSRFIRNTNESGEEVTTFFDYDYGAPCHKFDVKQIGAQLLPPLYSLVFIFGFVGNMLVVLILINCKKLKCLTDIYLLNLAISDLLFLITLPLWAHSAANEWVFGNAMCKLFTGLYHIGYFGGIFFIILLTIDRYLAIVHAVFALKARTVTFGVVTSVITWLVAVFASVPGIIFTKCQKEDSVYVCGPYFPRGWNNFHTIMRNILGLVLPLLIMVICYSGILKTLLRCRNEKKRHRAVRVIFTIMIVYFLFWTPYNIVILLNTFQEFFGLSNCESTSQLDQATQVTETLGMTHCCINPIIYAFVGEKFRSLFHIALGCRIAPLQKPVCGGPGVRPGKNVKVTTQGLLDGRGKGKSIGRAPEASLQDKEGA

[3] = target: Insulin receptor (Rattus norvegicus, UniProt P15127); format: cell membranes, Wistar, Liver, Membrane
Sequence of Insulin receptor (P15127 27-759 limits assumed): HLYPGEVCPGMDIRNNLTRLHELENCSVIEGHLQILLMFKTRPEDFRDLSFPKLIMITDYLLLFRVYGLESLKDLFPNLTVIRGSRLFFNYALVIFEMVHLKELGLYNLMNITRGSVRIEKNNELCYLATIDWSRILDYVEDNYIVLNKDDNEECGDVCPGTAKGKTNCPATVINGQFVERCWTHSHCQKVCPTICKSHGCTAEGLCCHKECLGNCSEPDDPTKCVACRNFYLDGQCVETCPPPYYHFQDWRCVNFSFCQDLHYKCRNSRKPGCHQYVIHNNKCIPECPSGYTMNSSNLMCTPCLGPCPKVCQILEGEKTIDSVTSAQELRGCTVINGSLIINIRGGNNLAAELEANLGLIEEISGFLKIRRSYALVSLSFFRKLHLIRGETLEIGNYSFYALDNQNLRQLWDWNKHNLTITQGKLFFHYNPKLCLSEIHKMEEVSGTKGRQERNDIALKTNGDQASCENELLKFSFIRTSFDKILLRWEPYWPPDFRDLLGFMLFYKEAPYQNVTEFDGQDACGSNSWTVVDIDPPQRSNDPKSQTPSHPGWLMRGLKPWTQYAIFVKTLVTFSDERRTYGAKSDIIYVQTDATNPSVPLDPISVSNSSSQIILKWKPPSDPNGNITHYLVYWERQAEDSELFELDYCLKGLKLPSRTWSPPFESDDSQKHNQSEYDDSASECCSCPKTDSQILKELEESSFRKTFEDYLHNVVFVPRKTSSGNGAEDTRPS
Sequence of Insulin receptor (P15127 764-1383 limits assumed): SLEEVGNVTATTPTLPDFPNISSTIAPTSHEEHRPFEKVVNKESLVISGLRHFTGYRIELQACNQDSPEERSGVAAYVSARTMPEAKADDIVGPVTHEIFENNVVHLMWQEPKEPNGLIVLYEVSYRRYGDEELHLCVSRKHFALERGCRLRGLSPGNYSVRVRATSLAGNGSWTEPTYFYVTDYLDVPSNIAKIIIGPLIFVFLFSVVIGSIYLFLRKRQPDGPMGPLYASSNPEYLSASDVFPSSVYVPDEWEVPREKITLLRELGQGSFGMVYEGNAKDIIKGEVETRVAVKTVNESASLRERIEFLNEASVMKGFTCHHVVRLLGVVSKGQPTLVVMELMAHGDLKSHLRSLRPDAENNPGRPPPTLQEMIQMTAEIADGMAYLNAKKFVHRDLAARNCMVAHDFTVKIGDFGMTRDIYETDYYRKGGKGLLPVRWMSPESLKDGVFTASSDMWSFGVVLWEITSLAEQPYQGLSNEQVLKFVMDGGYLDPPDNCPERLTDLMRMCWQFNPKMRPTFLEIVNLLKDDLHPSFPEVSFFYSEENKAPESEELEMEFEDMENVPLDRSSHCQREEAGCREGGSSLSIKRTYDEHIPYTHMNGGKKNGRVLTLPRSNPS

[4] = target: Mitogen-activated protein kinase 14 (Homo sapiens, UniProt Q16539); set-up: species or system Escherichia coli;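 further: inhibition of p38alpha enzyme activity in a biochemical kinase assay, with myelin basic protein serving as substrate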
Sequence of Mitogen-activated protein kinase 14 (Q16539 whole entry): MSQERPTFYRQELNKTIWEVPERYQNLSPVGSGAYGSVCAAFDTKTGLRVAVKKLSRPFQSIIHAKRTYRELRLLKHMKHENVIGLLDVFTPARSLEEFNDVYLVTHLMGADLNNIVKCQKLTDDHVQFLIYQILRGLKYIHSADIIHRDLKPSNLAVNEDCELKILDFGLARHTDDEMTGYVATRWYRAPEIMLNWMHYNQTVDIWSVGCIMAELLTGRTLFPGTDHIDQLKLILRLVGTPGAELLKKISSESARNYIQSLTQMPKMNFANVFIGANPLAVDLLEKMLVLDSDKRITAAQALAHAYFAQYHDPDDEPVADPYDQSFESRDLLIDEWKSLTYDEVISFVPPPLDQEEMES

[5] = target: T2, Glucocorticoid receptor (Homo sapiens, UniProt P04150); conditions: hela s3
T2 sequence (P04150 whole entry): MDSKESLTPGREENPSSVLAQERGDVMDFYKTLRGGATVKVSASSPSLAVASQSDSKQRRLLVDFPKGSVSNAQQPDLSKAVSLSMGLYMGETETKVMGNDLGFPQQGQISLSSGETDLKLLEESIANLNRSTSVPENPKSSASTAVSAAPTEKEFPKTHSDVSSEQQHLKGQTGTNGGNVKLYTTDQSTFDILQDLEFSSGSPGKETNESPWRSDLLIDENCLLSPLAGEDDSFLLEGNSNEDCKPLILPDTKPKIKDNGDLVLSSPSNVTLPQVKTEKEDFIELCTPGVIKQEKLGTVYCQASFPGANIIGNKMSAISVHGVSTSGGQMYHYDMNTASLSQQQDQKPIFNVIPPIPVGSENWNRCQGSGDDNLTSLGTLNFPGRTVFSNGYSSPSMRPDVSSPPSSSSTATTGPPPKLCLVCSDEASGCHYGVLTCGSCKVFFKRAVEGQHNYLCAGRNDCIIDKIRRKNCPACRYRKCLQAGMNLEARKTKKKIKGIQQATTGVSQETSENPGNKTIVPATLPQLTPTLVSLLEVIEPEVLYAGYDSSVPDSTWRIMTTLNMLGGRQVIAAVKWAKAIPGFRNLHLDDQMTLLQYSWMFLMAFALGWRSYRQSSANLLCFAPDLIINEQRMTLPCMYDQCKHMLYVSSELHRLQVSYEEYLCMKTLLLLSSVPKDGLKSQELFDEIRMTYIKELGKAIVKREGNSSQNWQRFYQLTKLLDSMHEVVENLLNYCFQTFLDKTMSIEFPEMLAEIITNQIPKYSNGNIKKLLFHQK

[6] = target: 5-hydroxytryptamine receptor 6 (Homo sapiens, UniProt P50406); format: cell membranes, HeLa, Membrane; conditions: hela
Sequence of 5-hydroxytryptamine receptor 6 (P50406 whole entry): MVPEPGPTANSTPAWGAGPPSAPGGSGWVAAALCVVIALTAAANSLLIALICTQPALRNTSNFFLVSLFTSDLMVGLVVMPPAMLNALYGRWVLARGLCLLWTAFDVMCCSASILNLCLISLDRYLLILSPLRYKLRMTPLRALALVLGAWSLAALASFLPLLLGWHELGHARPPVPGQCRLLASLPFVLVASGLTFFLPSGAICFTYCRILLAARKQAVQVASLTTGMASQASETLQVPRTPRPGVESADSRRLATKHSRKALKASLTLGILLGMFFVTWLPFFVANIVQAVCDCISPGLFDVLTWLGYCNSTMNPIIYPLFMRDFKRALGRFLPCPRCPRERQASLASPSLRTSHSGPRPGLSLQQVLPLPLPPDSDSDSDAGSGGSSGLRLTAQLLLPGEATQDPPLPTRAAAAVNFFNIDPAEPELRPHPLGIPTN

[7] = target: Prostaglandin G/H synthase 1 (Homo sapiens, UniProt P23219); assay: biochemical; format: tissue-based, Platelet;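 further: inhibition of COX-1 enzyme activity, with arachidonic acid supplied as substrate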
Sequence of Prostaglandin G/H synthase 1 (P23219 whole entry): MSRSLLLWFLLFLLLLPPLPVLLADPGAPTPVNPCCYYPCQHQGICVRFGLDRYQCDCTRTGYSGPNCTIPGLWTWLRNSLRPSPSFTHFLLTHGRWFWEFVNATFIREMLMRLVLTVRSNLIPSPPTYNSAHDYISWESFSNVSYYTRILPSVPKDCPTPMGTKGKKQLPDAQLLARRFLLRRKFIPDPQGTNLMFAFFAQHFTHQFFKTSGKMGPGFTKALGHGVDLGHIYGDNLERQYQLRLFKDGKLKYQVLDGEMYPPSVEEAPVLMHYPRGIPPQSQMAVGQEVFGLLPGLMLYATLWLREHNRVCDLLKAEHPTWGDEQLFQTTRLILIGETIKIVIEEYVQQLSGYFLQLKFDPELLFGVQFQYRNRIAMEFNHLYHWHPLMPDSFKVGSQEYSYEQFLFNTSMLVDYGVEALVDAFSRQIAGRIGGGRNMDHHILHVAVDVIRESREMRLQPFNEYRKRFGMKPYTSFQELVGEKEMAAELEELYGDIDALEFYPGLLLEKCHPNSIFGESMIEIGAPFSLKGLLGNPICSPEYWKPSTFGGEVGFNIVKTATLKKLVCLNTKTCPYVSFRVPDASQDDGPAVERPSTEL

[8] = target: T3, Neutrophil elastase (Homo sapiens, UniProt P08246); format: tissue-based;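 further: inhibition of neutrophil elastase enzyme activity, measured with a p-nitroanilide-linked peptide substrate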
T3 sequence (P08246 whole entry): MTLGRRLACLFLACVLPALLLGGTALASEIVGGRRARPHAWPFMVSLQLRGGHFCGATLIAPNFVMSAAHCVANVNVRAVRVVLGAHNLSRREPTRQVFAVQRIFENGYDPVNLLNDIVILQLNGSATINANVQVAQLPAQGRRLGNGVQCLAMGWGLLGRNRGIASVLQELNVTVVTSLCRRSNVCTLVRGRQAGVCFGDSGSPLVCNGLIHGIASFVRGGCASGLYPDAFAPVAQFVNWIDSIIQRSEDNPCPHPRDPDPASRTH
Further: in other assays of this panel Not Active means under 50% inhibition at 10 µM.

Row | Compound | IC50 [1] | IC50 [2] | IC50 [3] | IC50 [4] | IC50 [5] | IC50 [6] | IC50 ([7]; platelet) | IC50 [8] | IC50 ([7]; read-out: IC50) | IC50 ([4]; read-out: IC50)
1 | CCOc1nc2cccc(C(=O)O)c2n1Cc1ccc(-c2ccccc2-c2nnn[nH]2)cc1 | Not Active | Not Active | Not Active | Not Active | Not Active | Not Active | Not Active | Not Active |  | 
2 | O=C(O)CCCc1cccs1 | Not Active | Not Active | Not Active | Not Active | Not Active | Not Active | Not Active | Not Active |  | 
3 | COc1ccccc1N | Not Active | Not Active | Not Active | Not Active |  | Not Active |  | Not Active | 3.15 µM | 
4 | O=C(c1ccccc1F)N1CCC(Cc2ccccc2)CC1 | Not Active | Not Active | Not Active |  | Not Active | Not Active | Not Active | Not Active |  | 0.537 µM
5 | Cc1c(O)cccc1C(=O)N[C@@H](CSc1ccccc1)[C@H](O)CN1C[C@H]2CCCC[C@H]2C[C@H]1C(=O)NC(C)(C)C | Not Active | Not Active | Not Active |  |  | Not Active | Not Active | Not Active |  | 18.2 µM
6 | CC(O)COC[C@H]1O[C@@H]2O[C@H]3[C@H](O)[C@@H](O)[C@@H](O[C@H]4[C@H](O)[C@@H](O)[C@@H](O[C@H]5[C@H](O)[C@@H](O)[C@@H](O[C@H]6[C@H](O)[C@@H](O)[C@@H](O[C@H]7[C@H](O)[C@@H](O)[C@@H](O[C@H]8[C@H](O)[C@@H](O)[C@@H](O[C@H]1[C@H](O)[C@H]2O)O[C@@H]8COCC(C)O)O[C@@H]7COCC(C)O)O[C@@H]6COCC(C)O)O[C@@H]5COCC(C)O)O[C@@H]4COCC(C)O)O[C@@H]3COCC(C)O (stereo partly drawn) [2-HYDROXYPROPYL-BETA-CYCLODEXTRIN] | Not Active | Not Active | Not Active | Not Active | Not Active | Not Active | Not Active | Not Active |  | 
7 | NC(=O)c1cccc(N)c1 [3-AMINOBENZAMIDE] | Not Active | Not Active | Not Active | Not Active | Not Active | Not Active | Not Active | Not Active |  | 
8 | C[C@H]1O[C@H](O[C@H]2[C@H](O)[C@@H](O)[C@@H](O[C@H]3[C@H](O)[C@@H](O)C(O)O[C@@H]3CO)O[C@@H]2CO)[C@H](O)[C@@H](O)[C@@H]1N[C@H]1C=C(CO)[C@@H](O)[C@H](O)[C@H]1O (stereo not given in full) [ACARBOSE] | Not Active | Not Active | Not Active | Not Active | Not Active | Not Active | Not Active | Not Active |  | 
9 | CC(=O)Oc1ccccc1C(=O)O [ASPIRIN] | Not Active | Not Active | Not Active | Not Active | Not Active | Not Active |  | Not Active |  | 
10 | ClC(Cl)(Cl)Cl [CARBON TETRACHLORIDE] | Not Active | Not Active | Not Active | Not Active |  | Not Active | Not Active | Not Active |  | 
11 | CC(C)NCC(O)c1ccccc1Cl (stereo not given) [CLORPRENALINE] | Not Active | Not Active | Not Active | Not Active |  | Not Active | Not Active | Not Active |  | 
12 | C[C@]12CC[C@@H]3c4ccc(O)cc4CC[C@H]3[C@@H]1C[C@@H](O)[C@@H]2O [ESTRIOL] | Not Active | Not Active | Not Active | Not Active |  | Not Active | Not Active | Not Active |  | 
